Measurements published in patent US20100075852A1, “HERBICIDE COMBINATION COMPRISING DIMETHOXYTRIAZINYL-SUBSTITUTED DIFLUOROMETHANESULFONYLANILIDES” (BAYER CROPSCIENCE AG, priority 2008, published 2010).
Where two headings read alike, the source gives them in different places.

Assays:
Test in all cases: Post-emergence action against weeds, greenhouse pot test, visual scoring
Format in all cases: in vivo
[1] = system: Fallopia (ex Polygonum) convolvulus (POLCO); settings: POLCO, 21 DAT
Outline: (§1)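 Plants grown from seed or rhizome pieces in sandy loam in a greenhouse were sprayed at the 2- to 3-leaf stage (about three weeks) with formulated herbicides, alone or in combination, at various dosages in 600 l water/ha. Damage was scored visually versus untreated controls (0–100%) up to 21 days; Colby expected values computed.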

Veronica persica (VERPE) = settings: 21 DAT, rate (5) A-1 12
Outline: as §1

[2] = system: Triticum aestivum (TRZAS); settings: for (7) activity found: rate (5) A-1 12; for inhibition at 4 g/ha / inhibition at 12 g/ha: Triticum aestivum, post-emergence, read-out: % activity found; for inhibition at 4 g/ha: 4 g of ai/ha alone; for inhibition at 12 g/ha: 12 g of ai/ha alone
Outline: as §1

[3] = system: Cyperus esculentus (CYPES); settings: CYPES, 21 DAT
Outline: as §1

Stellaria media (STEME) = settings: 10 DAT
Outline: as §1

[4] = system: Abuthilon theophrasti (ABUTH); settings: 21 DAT, rate (5) A-1 12
Outline: as §1

Avena fatua (AVEFA) = settings: AVEFA; for inhibition at 4 g/ha / inhibition at 12 g/ha: Avena fatua, post-emergence, read-out: % activity found; for inhibition at 4 g/ha: 4 g of ai/ha alone; for inhibition at 12 g/ha: 12 g of ai/ha alone
Outline: as §1

Zea mays (ZEAMX) = settings: ZEAMX; for inhibition at 4 g/ha / inhibition at 12 g/ha: Zea mays, post-emergence, read-out: % activity found; for inhibition at 4 g/ha: 4 g of ai/ha alone; for inhibition at 12 g/ha: 12 g of ai/ha alone
Outline: as §1

[5] = system: Pharbitis purpurea (PHBPU); settings: 21 DAT
Outline: as §1

[6] = system: Matricaria inodora (MATIN); settings: MATIN, 21 DAT
Outline: as §1

[7] = system: Lolium multiflorum (LOLMU); settings: LOLMU; for inhibition at 4 g/ha / inhibition at 12 g/ha: Lolium multiflorum, post-emergence, read-out: % activity found; for inhibition at 4 g/ha: 4 g of ai/ha alone; for inhibition at 12 g/ha: 12 g of ai/ha alone
Outline: as §1

Viola tricolor (VIOTR) = settings: for (7) activity found: rate (5) A-1 12
Outline: as §1

Oryza sativa (ORYSA) = settings: ORYSA, read-out: % activity found; for inhibition at 4 g/ha: 4 g of ai/ha alone; for inhibition at 12 g/ha: 12 g of ai/ha alone
Description: (§2) Seeds or rhizome pieces of mono- and dicotyledonous harmful and useful plants were placed in peat pots (diameter 4 cm) filled with sandy loam and then covered with soil. The pots were kept in a greenhouse under optimum conditions. In addition, harmful plants encountered in paddy rice cultivation were cultivated in pots with a water level 2 cm above the soil surface.
(§3) About three weeks after the start of the cultivation, the test plants were treated at the 2- to 3-leaf stage. The herbicides, formulated as powder or liquid concentrates, were, either alone or in the combinations according to the invention, sprayed in various dosages on to the green parts of the plants using an application rate of 600 l of water/ha (converted). For further cultivation of the plants, the pots were then again kept under optimum conditions in a greenhouse.
(§4) The visual scoring of the herbicidal effects was carried out in intervals up to 21 days after the treatment. Scoring was carried out in percent in comparison to the untreated control plants. 0%=no herbicidal activity, 100%=complete herbicidal activity=complete kill.
(§5) The percentages from the treatments with the herbicides alone (=individual application) and with the combinations according to the invention (=mixtures) were employed to calculate interactions using the method of Colby. When the observed efficacies of the mixtures exceed the formal sum of the values of the tests with individual applications, they also exceed the expected value according to Colby, which is calculated using the formula below (cf. S. R. Colby; in Weeds 15 (1967) pp. 20 to 22):
(§6) • A, B=activity of components A and B in percent at a dosage of a and b g of ai/ha (=gramm of active substance per hectare), respectively. • E=expected value in % at a dosage of a+b g of ai/ha.

Setaria viridis (SETVI) = settings: 504 h, SETVI, 21 DAT, read-out: % activity found
Description: as §2, §3, §4, §5, §6

[8] = system: Alopecurus myosuroides (ALOMY); settings: ALOMY, read-out: % activity found; for inhibition at 4 g/ha: 4 g of ai/ha alone; for inhibition at 12 g/ha: 12 g of ai/ha alone
Description: as §2, §3, §4, §5, §6

## COc1nc(OC)nc(C(=O)c2cccc(F)c2N(C)S(=O)(=O)C(F)F)n1 [A-1]
[1]; Fallopia convolvulus, post-emergence, 504 h, 4 g of ai/ha alone, read-out: % activity found
  inhibition at 4 g/ha: 75%
[1]; Fallopia convolvulus, post-emergence, 504 h, 12 g of ai/ha alone, read-out: % activity found
  inhibition at 12 g/ha: 70%
[1]; rate (5) A-1 4
  (7) activity found: 75%
[1]; rate (5) A-1 12
  (7) activity found: 70%
Veronica persica (VERPE)
  (7) activity found: 40%
[2]; 10 DAT
  (7) activity found: 0%
[2]; 21 DAT
  (7) activity found: 0%
[2]; 240 h, 10 DAT
  inhibition at 4 g/ha: 0%
  inhibition at 12 g/ha: 0%
[2]; 504 h, 21 DAT
  inhibition at 4 g/ha: 0%
  inhibition at 12 g/ha: 0%
[3]; rate (5) A-1 4
  (7) activity found: 80%
[3]; rate (5) A-1 12
  (7) activity found: 80%
[3]; rate (5) A-1 12 (Table 85)
  (7) activity found: 80%
[3]; Cyperus esculentus, post-emergence, 504 h, 4 g of ai/ha alone, read-out: % activity found
  inhibition at 4 g/ha: 80%
[3]; Cyperus esculentus, post-emergence, 504 h, 12 g of ai/ha alone, read-out: % activity found
  inhibition at 12 g/ha: 80%
Stellaria media (STEME); rate (5) A-1 4
  (7) activity found: 70%
Stellaria media (STEME); rate (5) A-1 12
  (7) activity found: 70%
[4]
  (7) activity found: 85%
Avena fatua (AVEFA); 21 DAT, rate (5) A-1 4
  (7) activity found: 10%
Avena fatua (AVEFA); 21 DAT, rate (5) A-1 12
  (7) activity found: 30%
Avena fatua (AVEFA); 240 h, 10 DAT
  inhibition at 4 g/ha: 40%
  inhibition at 12 g/ha: 50%
Avena fatua (AVEFA); 504 h, 21 DAT
  inhibition at 4 g/ha: 10%
  inhibition at 12 g/ha: 30%
Zea mays (ZEAMX); 10 DAT, rate (5) A-1 4
  (7) activity found: 0%
Zea mays (ZEAMX); 10 DAT, rate (5) A-1 12
  (7) activity found: 0%
Zea mays (ZEAMX); 21 DAT, rate (5) A-1 4
  (7) activity found: 0%
Zea mays (ZEAMX); 21 DAT, rate (5) A-1 4 (Table 80)
  (7) activity found: 0%
Zea mays (ZEAMX); 21 DAT, rate (5) A-1 12
  (7) activity found: 0%
Zea mays (ZEAMX); 21 DAT, rate (5) A-1 12 (Table 80)
  (7) activity found: 0%
Zea mays (ZEAMX); 240 h, 10 DAT
  inhibition at 4 g/ha: 0%
  inhibition at 12 g/ha: 0%
Zea mays (ZEAMX); 504 h, 21 DAT
  inhibition at 4 g/ha: 0%
  inhibition at 12 g/ha: 0%
[5]; rate (5) A-1 4
  (7) activity found: 60%
[5]; rate (5) A-1 12
  (7) activity found: 65%
[6]; rate (5) A-1 4
  (7) activity found: 50%
[6]; rate (5) A-1 12
  (7) activity found: 60%
[6]; Tripleurospermum inodorum, post-emergence, 504 h, 4 g of ai/ha alone, read-out: % activity found
  inhibition at 4 g/ha: 50%
[6]; Tripleurospermum inodorum, post-emergence, 504 h, 12 g of ai/ha alone, read-out: % activity found
  inhibition at 12 g/ha: 60%
[7]; 10 DAT, rate (5) A-1 4
  (7) activity found: 0%
[7]; 10 DAT, rate (5) A-1 12
  (7) activity found: 10%
[7]; 240 h, 10 DAT
  inhibition at 4 g/ha: 0%
  inhibition at 12 g/ha: 10%
[7]; 504 h, 21 DAT
  inhibition at 4 g/ha: 0%
  inhibition at 12 g/ha: 10%
Viola tricolor (VIOTR); 10 DAT
  (7) activity found: 20%
Viola tricolor (VIOTR); 21 DAT
  (7) activity found: 10%
Viola tricolor (VIOTR); Viola tricolor, post-emergence, 504 h, 21 DAT, 4 g of ai/ha alone, read-out: % activity found
  inhibition at 4 g/ha: 0%
Viola tricolor (VIOTR); Viola tricolor, post-emergence, 504 h, 21 DAT, 12 g of ai/ha alone, read-out: % activity found
  inhibition at 12 g/ha: 10%
Oryza sativa (ORYSA); 240 h, 10 DAT
  inhibition at 4 g/ha: 10%
  inhibition at 12 g/ha: 10%
Oryza sativa (ORYSA); 504 h, 21 DAT
  inhibition at 4 g/ha: 0%
  inhibition at 12 g/ha: 10%
Setaria viridis (SETVI); 4 g of ai/ha alone
  inhibition at 4 g/ha: 0%
Setaria viridis (SETVI); 12 g of ai/ha alone
  inhibition at 12 g/ha: 20%
[8]; 240 h, 10 DAT
  inhibition at 4 g/ha: 40%
  inhibition at 12 g/ha: 40%
[8]; 504 h, 21 DAT
  inhibition at 4 g/ha: 40%
  inhibition at 12 g/ha: 50%
